Source: patent US20220289794A1, “SYNTHETIC ANTIMICROBIAL PEPTIDES” (priority 2019, published 2022)
In brackets after ≈: the same amount, converted by molar mass. Like-named read-outs stand apart in the source and are kept apart here. Non-standard residues stand in square brackets, D forms with d. Residues, ends and D or L forms follow the SMILES beside them. Dip = N[C@H](C(=O)O)C(c1ccccc1)c1ccccc1; 2Nal = N[C@@H](Cc1ccc2ccccc2c1)C(=O)O; d2Nal = N[C@H](Cc1ccc2ccccc2c1)C(=O)O

Key:
[1] = tested on: B. subtilis (ATCC-6633); experiment: Broad-spectrum activity against Gram-Positive bacteria (MIC); format: cell-based; set-up: unit not given here
[2] = tested on: E. coli (ATCC BAA-2452); experiment: Broad-spectrum activity against Gram-Negative bacteria (MIC); format: cell-based; settings: Table 16, Gram-negative panel
[3] = tested on: B. cereus (ATCC-13061); experiment: Broad-spectrum activity against Gram-Positive bacteria (MIC); format: cell-based; set-up: unit not given here
[4] = tested on: A. baumannii (ATCC BAA-1605); experiment: Broad-spectrum activity against Gram-Negative bacteria (MIC); format: cell-based; settings: Table 16, Gram-negative panel
[5] = tested on: P. aeruginosa (ATCC 10145); experiment: as above; format: cell-based; settings: Table 16, Gram-negative panel
[6] = tested on: P. aeruginosa (ATCC BAA-1744); experiment: as above; format: cell-based; settings: Table 16, Gram-negative panel
[7] = tested on: Methicillin-resistant Staphylococcus aureus MRSA (ATCC BAA-1556)
[8] = tested on: S. aureus ATCC 29213
[9] = tested on: Pseudomonas aeruginosa (ATCC 27883)
[10] = tested on: Escherichia coli (ATCC 25922)
[11] = tested on: Klebsiella pneumoniae (ATCC BAA-1705); settings: Table 16, Gram-negative panel
[12] = tested on: human red blood cells; set-up: unit not given beside the values
[13] = tested on: Enterococcus faecium ATCC 27270; settings: E. faecium ATCC 27270
[14] = tested on: Enterococcus faecium ATCC 700221; settings: E. faecium ATCC 700221
[15] = tested on: Klebsiella pneumoniae ATCC 13883; settings: Table 16, Gram-negative panel
[16] = tested on: Enterococcus faecalis ATCC 29212; settings: E. faecalis ATCC 29212
[17] = tested on: Streptococcus pneumoniae ATCC 49619; settings: S. pneumoniae ATCC 49619
[18] = tested on: Streptococcus pneumoniae ATCC 51938; settings: S. pneumoniae ATCC 51938
[19] = in vitro; settings: human, fresh human red blood cells (washed), pH 7.4
[20] = tested on: Enterococcus faecalis ATCC 51575; settings: E. faecalis ATCC 51575

Compound | Broad-spectrum activity B. subtilis (ATCC-6633) [1] | MIC E. coli (ATCC BAA-2452) [2] [µg/mL] | Broad-spectrum activity B. cereus (ATCC-13061) [3] | MIC A. baumannii (ATCC BAA-1605) [4] [µg/mL] | MIC P. aeruginosa (ATCC 10145) [5] [µg/mL] | MIC P. aeruginosa (ATCC BAA-1744) [6] [µg/mL] | MIC MRSA ATCC BAA-1556 ([7]; ATCC BAA-1556) [µg/mL] | MIC S. aureus ATCC 29213 ([8]; ATCC 29213) [µg/mL] | MIC P. aeruginosa ATCC 27883 ([9]; ATCC 27883) [µg/mL] | MIC E. coli ATCC 25922 ([10]; ATCC 25922) [µg/mL] | MIC K. pneumonia (ATCC BAA-1705) [11] [µg/mL] | Broad-spectrum activity E. faecium (ATCC 27270) [13] | Broad-spectrum activity E. faecium (ATCC 700221) [14] | MIC K. pneumonia (ATCC 13883) [15] [µg/mL] | Broad-spectrum activity E. faecalis (ATCC 29212) [16] | Broad-spectrum activity S. pneumoniae (ATCC 49619) [17] | Broad-spectrum activity S. pneumoniae (ATCC 51938) [18] | HC50 at 0.5 h [19] [µg/mL] | also measured
N=C(N)NCCC[C@@H]1NC(=O)[C@H](CCCNC(=N)N)NC(=O)[C@H](C(c2ccccc2)c2ccccc2)NC(=O)[C@H](C(c2ccccc2)c2ccccc2)NC(=O)[C@H](CCCNC(=N)N)NC(=O)[C@H](CCCNC(=N)N)NC(=O)[C@H](C(c2ccccc2)c2ccccc2)NC1=O [IFX-017, c[Arg-Arg-Dip-Dip-Arg-Arg-Dip]] (cyclo(R[Dip]RR[Dip][Dip]R)) | 1.5 | 12.5 (≈ 9.66 µM) | 6.2 | 12.5 (≈ 9.66 µM) | 25 (≈ 19.3 µM) | 25 (≈ 19.3 µM) | 12.5 (≈ 9.66 µM) | 6.2 (≈ 4.79 µM) | >100 | >100 | 25 (≈ 19.3 µM) | 3.1 | 1.5 | 50 (≈ 38.6 µM) | 12.5 | 50 | 12.5 |  | HC50 [12]: 290
NCCCC[C@@H]1NC(=O)[C@@H](CCCCN)NC(=O)[C@H](CCCCN)NC(=O)[C@@H](Cc2ccc3ccccc3c2)NC(=O)[C@@H](Cc2ccc3ccccc3c2)NC(=O)[C@H](Cc2c[nH]c3ccccc23)NC(=O)[C@@H](CCCCN)NC1=O [IFX-129, c[Lys-lys-Lys-lys-Trp-naI-naI]] (cyclo(K[dK]K[dK]W[d2Nal][d2Nal])) |  |  |  |  |  |  | 3.1 (≈ 2.84 µM) | 3.1 (≈ 2.84 µM) | 64 (≈ 58.5 µM) | 64 (≈ 58.5 µM) |  |  |  |  |  |  |  | 420 | 
NCCCC[C@H]1NC(=O)[C@@H](CCCCN)NC(=O)[C@@H](CCCCN)NC(=O)[C@@H](Cc2ccc3ccccc3c2)NC(=O)[C@@H](Cc2ccc3ccccc3c2)NC(=O)[C@@H](Cc2c[nH]c3ccccc23)NC(=O)[C@@H](CCCCN)NC1=O [IFX-130, c[lys-lys-lys-lys-trp-naI-naI]] (cyclo([d2Nal][d2Nal][dK][dK][dK][dK][dW])) |  |  |  |  |  |  | 12.5 (≈ 11.4 µM) | 6.2 (≈ 5.67 µM) | 128 (≈ 117 µM) | 128 (≈ 117 µM) |  |  |  |  |  |  |  | 880 | 
NCCCC[C@@H]1NC(=O)[C@H](CCCCN)NC(=O)[C@H](CCCCN)NC(=O)[C@H](Cc2ccc3ccccc3c2)NC(=O)[C@H](Cc2ccc3ccccc3c2)NC(=O)[C@H](Cc2c[nH]c3ccccc23)NC(=O)[C@H](CCCCN)NC(=O)[C@H](CCCCN)NC1=O [IFX-131, c[Lys-Lys-Lys-Lys-Lys-Trp-NaI-NaI]] (cyclo([2Nal][2Nal]KKKKKW)) |  |  |  |  |  |  | 12.5 (≈ 10.2 µM) | 6.2 (≈ 5.08 µM) | 64 (≈ 52.4 µM) | 128 (≈ 105 µM) |  |  |  |  |  |  |  | 690 | 
NCCCC[C@@H]1NC(=O)[C@H](CCCCN)NC(=O)[C@H](CCCCN)NC(=O)[C@@H](Cc2ccc3ccccc3c2)NC(=O)[C@@H](Cc2ccc3ccccc3c2)NC(=O)[C@@H](Cc2c[nH]c3ccccc23)NC(=O)[C@H](CCCCN)NC(=O)[C@H](CCCCN)NC1=O [IFX-132, c[Lys-Lys-Lys-Lys-Lys-trp-naI-naI]] (cyclo(KKKKK[dW][d2Nal][d2Nal])) |  |  |  |  |  |  | 12.5 (≈ 10.2 µM) | 12.5 (≈ 10.2 µM) | 128 (≈ 105 µM) | 128 (≈ 105 µM) |  |  |  |  |  |  |  | 930 | 
NCCCC[C@H]1NC(=O)[C@@H](CCCCN)NC(=O)[C@@H](CCCCN)NC(=O)[C@@H](Cc2ccc3ccccc3c2)NC(=O)[C@@H](Cc2ccc3ccccc3c2)NC(=O)[C@@H](Cc2c[nH]c3ccccc23)NC(=O)[C@@H](CCCCN)NC(=O)[C@@H](CCCCN)NC1=O [IFX-133, c[lys-lys-lys-lys-lys-trp-naI-naI]] (cyclo([d2Nal][d2Nal][dK][dK][dK][dK][dK][dW])) |  |  |  |  |  |  | 6.2 (≈ 5.08 µM) | 6.2 (≈ 5.08 µM) | 128 (≈ 105 µM) | 128 (≈ 105 µM) |  |  |  |  |  |  |  | 580 | 
NCCCC[C@H]1NC(=O)[C@H](Cc2ccc3ccccc3c2)NC(=O)[C@H](Cc2ccc3ccccc3c2)NC(=O)[C@H](Cc2c[nH]c3ccccc23)NC(=O)[C@@H](CCCCN)NC(=O)[C@@H](CCCCN)NC(=O)[C@@H](CCCCN)NC(=O)[C@@H](CCCCN)NC1=O [IFX-134, c[lys-lys-lys-lys-lys-Trp-NaI-NaI]] (cyclo([2Nal][2Nal][dK][dK][dK][dK][dK]W)) |  |  |  |  |  |  | 12.5 (≈ 10.2 µM) | 12.5 (≈ 10.2 µM) | 128 (≈ 105 µM) | 128 (≈ 105 µM) |  |  |  |  |  |  |  | 890 | 
c[Arg-Arg-Arg-Arg-Dip-Dip-dip] [IFX-060] | 1.5 | 12.5 | 3.1 | 6.2 | 25 | 12.5 |  |  |  |  | 12.5 | 3.1 | 1.5 | 50 | 3.1 | 25 | 12.5 |  | MIC MRSA ATCC BAA-1556 ([7]; MRSA ATCC BAA-1556): 1.5 µg/mL; MIC S. aureus ATCC 29213 ([8]; S. aureus ATCC 29213): 1.5 µg/mL; MIC P. aeruginosa ATCC 27883 ([9]; P. aeruginosa ATCC 27883): 12.5 µg/mL; MIC E. coli ATCC 25922 ([10]; E. coli ATCC 25922): 6.2 µg/mL; Broad-spectrum activity E. faecalis (ATCC 51575) [20]: 12.5
c[Arg-Arg-Arg-Arg-Dip-Trp-dip] [IFX-088] | 1.5 | 12.5 | 6.2 | 12.5 | 25 | 50 |  |  |  |  | 25 | 3.1 | 12.5 | 50 | 12.5 | 25 | 12.5 |  | MIC MRSA ATCC BAA-1556 ([7]; MRSA ATCC BAA-1556): 3.1 µg/mL; MIC S. aureus ATCC 29213 ([8]; S. aureus ATCC 29213): 3.1 µg/mL; MIC P. aeruginosa ATCC 27883 ([9]; P. aeruginosa ATCC 27883): 12.5 µg/mL; MIC E. coli ATCC 25922 ([10]; E. coli ATCC 25922): 12.5 µg/mL; Broad-spectrum activity E. faecalis (ATCC 51575) [20]: 12.5
